Test results as given in publication PMC11599599, “Synthesis, characterization, molecular docking, pharmacokinetics, and molecular dynamics of new bis-thiazoles based on bis-thiosemicarbazone as anti-coxsackievirus” (Scientific Reports, 2024).

Columns and labels:
[1] = tested on: Cox B virus; experiment: Plaque reduction assay against Cox B virus; assay type: cell-based; settings: for inhibition at 20 µg/mL / inhibition at 40 µg/mL: Vero
Procedure: (§1) Compounds: 10 mg were dissolved in 1 mL (10% DMSO and 90% deionized water), sterilized by 1% antibiotic–antimycotic mixture and stored in −20.
(§2) Cells: Vero cell line was used. The cells were propagated in DMEM medium (Lonza, USA) supplemented with 10% fetal bovine serum (Gibco, USA), 1% antibiotic–antimycotic mixture (Lonza, USA).
Virus: Cox B virus was propagated and titrated to give final count of 0.9 × 10^5 viral particle/mL.
This test was done according to Tebas et al.[47], In a 12-well plate Vero cells (10^5 cells/mL) were cultivated for 1 day at 37 °C. The Cox B virus was mixed with the safe concentration of the compound and incubated for 1 h at 37 °C before being added to the cells. Following the removal of the growth media, the cells were injected with virus-extract combinations ([…]) and then rinsed with PBS (Phosphate Buffer Saline). Following a one-hour contact period for virus adsorption, the cell monolayer was supplemented with one milliliter of Dulbecco’s Modified Eagles Media (DMEM) containing 2% agarose. The plates were then allowed to solidify and incubated at 37 °C until the development of viral plaques. Formalin (10%) was added for 2 h then plates were stained with crystal violet. Control wells were included where untreated virus was incubated with Vero cells and finally plaques were counted and percentage reduction in plaques formation in comparison to control wells was recorded as following:
% inhibition = (viral count(untreated) - viral count(treated))/viral count(untreated)X100.

[2] = tested on: Vero cells; experiment: Cytotoxicity assay on Vero cells (microscopic morphology); assay type: cell-based; design: key to Cytotoxicity on Vero cells (cell sheet affected): -: Safe concentration; + 1, +2, + 3, +4: about 25, 50, 75, 100% of cell sheet was affected respectively; + 1, +2, + 3, +4: about 25, 50, 75, 100% of cell sheet was affected respectively; + 1, +2, + 3, +4: about 25, 50, 75, 100% of cell sheet was affected respectively; + 1, +2, + 3, +4: about 25, 50, 75, 100% of cell sheet was affected respectively; M: masked (color of compounds made cells unseen); settings: for Cytotoxicity on Vero cells (cell sheet affected): 24 h, morphological changes; for Safety effect on Vero cells (in words): Table 1, 24 h
Procedure: as §1, §2
Cytotoxic effect of compounds was measured by inoculation different doses of compounds on tested cells then examining them microscopically after 24 h to determine any morphological changes that appeared on cells as a result of being subjected to the compounds[46]. Vero cells were seeded onto 96-well plates, which were then incubated for the whole night. After a 24-hour incubation period at 37 °C in a humidified incubator with 5% CO2, compounds were injected at concentrations of 10, 20, 30, 40, 50, 60, 70, 80, 90, and 100 µg /100 µl. Any morphological changes were monitored under a microscope.

Row | Compound | Viral count (treated) ([1]; 20 ug/mL) | Viral count (treated) ([1]; 40 ug/mL) | inhibition at 20 µg/mL [1] [%] | inhibition at 40 µg/mL [1] [%] | melting point [°C] | Cytotoxicity on Vero cells (cell sheet affected) ([2]; 10 µg/100µl) | Cytotoxicity on Vero cells (cell sheet affected) ([2]; 20 µg/100µl) | Cytotoxicity on Vero cells (cell sheet affected) ([2]; 30 µg/100µl) | Cytotoxicity on Vero cells (cell sheet affected) ([2]; 40 µg/100µl) | Cytotoxicity on Vero cells (cell sheet affected) ([2]; 50 µg/100µl) | Cytotoxicity on Vero cells (cell sheet affected) ([2]; 60 µg/100µl) | Cytotoxicity on Vero cells (cell sheet affected) ([2]; 70 µg/100µl) | Cytotoxicity on Vero cells (cell sheet affected) ([2]; 80 µg/100µl) | Cytotoxicity on Vero cells (cell sheet affected) ([2]; 90 µg/100µl) | Cytotoxicity on Vero cells (cell sheet affected) ([2]; 100 µg/100µl) | Safety effect on Vero cells (in words) [2]
1 | COc1ccc(OC)c(C=C2/C(=N/Nc3nc(C)c(/N=N/c4ccc(C)cc4)s3)c3ccccc3/C2=N\Nc2nc(C)c(/N=N/c3ccc(C)cc3)s2)c1 [7b, 2,2’-(((1E,3E)−2-(2,5-dimethoxybenzylidene)−1H-indene-1,3(2H)-diylidene)bis(hydrazin-1-yl-2-ylidene))bis(4-methyl-5-((E)-p-tolyldiazenyl)thiazole)] | 1.6 × 10^7 | 1.07 × 10^7 | 0 | 33 | 132 to 135 | - | - | - | - | - | M | M | M | M | M | dense and coloured that made masking to the cell sheet
2 | COc1ccc(OC)c(C=C2/C(=N/Nc3nc(C)c(/N=N/c4ccc([N+](=O)[O-])cc4)s3)c3ccccc3/C2=N\Nc2nc(C)c(/N=N/c3ccc([N+](=O)[O-])cc3)s2)c1 [7d, 2,2’-(((1E,3E)−2-(2,5-dimethoxybenzylidene)−1H-indene-1,3(2H)-diylidene)bis(hydrazin-1-yl-2-ylidene))bis(4-methyl-5-((E)-(4-nitrophenyl)diazenyl)thiazole)] | 1.6 × 10^7 | 0.54 × 10^7 | 0 | 66 | 181 to 183 | - | - | - | - | - | - | - | - | - | - | higher safety
3 | COc1ccc(OC)c(C=C2/C(=N/NC3=NC(=O)CS3)c3ccccc3/C2=N\NC2=NC(=O)CS2)c1 [9a, 2,2’-(((1E,3E)−2-(2,5-dimethoxybenzylidene)−1H-indene-1,3(2H)-diylidene)bis(hydrazin-1-yl-2-ylidene))bis(thiazol-4(5H)-one)] | 1.6 × 10^7 | 1.6 × 10^7 | 0 | 0 | 130 to 132 | - | - | - | - | - | - |  |  |  |  | highly toxic at low concentration
4 | COc1ccc(OC)c(C=C2/C(=N/NC3=NC(=O)C(C)S3)c3ccccc3/C2=N\NC2=NC(=O)C(C)S2)c1 (stereo not drawn) [9b, 2,2’-(((1E,3E)−2-(2,5-dimethoxybenzylidene)−1H-indene-1,3(2H)-diylidene)bis(hydrazin-1-yl-2-ylidene))bis(5-methylthiazol-4(5H)-one)] |  |  |  |  | 198 to 200 | - | - | - | - | - | - |  |  |  |  | highly toxic at low concentration
5 | COc1ccc(OC)c(C=C2C(=O)c3ccccc3C2=O)c1 [compound 1, 2-(2,5-dimethoxy-benzylidene)indan-1,3-dione] | 1.42 × 10^7 | 1.6 × 10^7 | 11 | 0 |  | - | - | - | - | - | - | - | - | - | - | higher safety
6 | COc1ccc(OC)c(C=C2C(=NNC(N)=S)c3ccccc3C2=NNC(N)=S)c1 [compound 3, 2,2’-((1E,3Z)−2-((E)−2,5-dimethoxybenzylidene)−1H-indene-1,3(2H)-diylidene)bis-(hydrazine-1-carbothioamide)] | 1.24 × 10^7 | 0.72 × 10^7 | 22 | 55 | 231 to 233 | - | - | - | - | - | - | - | - | - | - | higher safety
7 | COc1ccc(OC)c(C=C2/C(=N/Nc3nc(-c4ccccc4)cs3)c3ccccc3/C2=N\Nc2nc(-c3ccccc3)cs2)c1 [compound 13, 2,2’-(((1E,3E)−2-(2,5-dimethoxybenzylidene)−1H-indene-1,3(2H)-diylidene)bis(hydrazin-1-yl-2-ylidene))bis(4-phenylthiazole)] | 1.6 × 10^7 | 1.6 × 10^7 | 0 | 0 | 193 to 195 | - | - | - | - | - | - | - | - | - | - | higher safety
